Results published in patent publication US11096952B2, “Chemicals and methods to prevent and treat TGF-beta mediated activation of fibroblasts to reduce and treat cancer and fibrosis” (Board of Supervisors of Louisiana State University and …, priority 2016, dated 2021).

Assays:
[1] = system: activated fibroblast phenotype (fibronectin, YAP, TAZ, smooth muscle actin); test: Western blot of activated fibroblast markers (FN, YAP, TAZ, SMA) in MRC-5 lung fibroblasts induced by growth factors; type: cell-based, human
Protocol: FIG. 10C: MRC-5 lung fibroblast cells were serum-starved 24 hours then treated with 10 ng/mL TGF-β in serum-free media for 24 hours with or without verteporfin at the indicated concentration. FN: fibronectin, YAP: yes-activated protein, TAZ: transcriptional coactivator with PDZ-binding motif, and SMA(ACTA2): smooth muscle actin. Representative western blot is shown (n=3).
FIG. […] T.F.8: combination TGF, FGF, IL8. […] FN: fibronectin, YAP: yes-activated protein, TAZ: transcriptional coactivator with PDZ-binding motif, and SMA(ACTA2): smooth muscle actin. Representative western blot is shown (n=2).

[2] = system: TGF-β-induced fibronectin; conditions: MRC-5, 10 ng/mL TGF-β, 24 hours, low concentrations alone or in combination
Protocol: (§1) FIGS. 13A-13C: MRC-5 lung fibroblast cells were serum-starved 24 hours then treated with or without 10 ng/mL TGF-β for 24 hours (T-24 hr). […] FN: fibronectin, YAP: yes-activated protein, TAZ: transcriptional coactivator with PDZ-binding motif, and SMA(ACTA2): smooth muscle actin. Representative western blot is shown (n=2). […] Cells were fixed in −20C methanol for 15 minutes and immunolabeled for fibronectin. Cellomics arrayscan imaging was performed and staining intensity was quantified and analyzed for fibronectin expression on a per cell basis.
(§2) Turning now to FIGS. 13A-13E, in a clinical setting, it would be advantageous for the efficacy of the therapeutics that the activated fibroblasts be reversed to a quiescent state upon treatment. […] To test the combinations, the inventors obtained quantitative analysis of fibronectin staining in fibroblasts upon treatment with TGF-β in the presence or absence of drug combinations.

[3] = system: activated fibroblast phenotype; conditions: MRC-5 pre-activated with 10 ng/mL TGF-β 24 hours, then 24 hours treatment
Protocol: as §1, §2

[4] = system: TGF-β-induced fibronectin expression; test: Western blot of TGF-β-induced fibronectin expression in WPMY-1 fibroblasts; type: cell-based, human; conditions: for TGF-β-induced fibronectin expression, intracellular Ca2+ modulators (western blot): WPMY-1, 2.5-10 μM, 5 ng/ml TGF-β, 24 hours
Protocol: (§3) Inhibitors of CAF Differentiation. A. WPMY-1 cells were plated into each well of 4-chamber slice (for IF), or (C) in a 24 well plate (for western blot analysis). After cell attachment, vehicle or 5 ng/ml TGF-β was added into each well and incubated for 24 h in a 37° C. in a humidified incubator containing 5% CO2. For fluorescence detection (A), cells were fixed and stained with antibody detecting fibronectin and/or stained with DAPI to detect the nuclei. Protein was extracted with boiling Lamaelli buffer for WB (C) and blots were probed with anti-fibronectin or anti-tubulin antibodies. Fibronectin fluorescence (D and E) was measured in the presence or absence of TGF-β in 8 well replicates as follows. Cells were conditioned in serum-free DMEM for 48 hr prior to the addition of TGF-β. Images were acquired using a Cellomics platform with a mask shown in the schematic of (B). The mean of the total fluorescence intensity in each well was calculated from 300 cells per image field and up to 15 fields from each well for fibronectin. The fold change in fibronectin expression per acquired image (nuclei) is shown (Mean+/−SD).
Panel A1 is the control, Panel A2 is the TGF-β treated wells and Panel A3 is TGF-β plus PsA at 5 micromolar. Images were captured using the Cellomics imaging system.
Representative blots are shown with two exposures of fibronectin to account for strong signal intensity. n=3.
FIGS. 9A-9B: Increases in intracellular Ca^2+ prevent TGF-β-induced fibronectin expression. (A) WPMY-1 fibroblasts were treated with 2.5 μM thapsigargin±5 ng/ml TGF-β for 24 hours. (B) WPMY-1 fibroblasts were treated with 2.5-10 μM 3′,4′-dichlorobenzamil hydrochloride (DCB)±5 ng/ml TGF-β for 24 hours. Cell lysates were analyzed by western blot for fibronectin expression.
Because of the observed low nanomolar effective concentration of the cardiac glycosides, the inventors hypothesized that the cardiac glycosides may be acting by binding to their high affinity target, the Na^+/K^+ ATPase, and that action through the ATPase is the mechanism by which the cardiac glycosides are able to block TGF-β-induced fibronectin expression. It is well documented that inhibition of the Na^+/K^+ ATPase by digoxin leads to increases in intracellular Ca^2+ by preventing Ca^2+ efflux through the Na^+/Ca^2+ exchanger. In order to determine if increased intracellular Ca^2+ is sufficient to prevent TGF-β-induced fibronectin expression, the inventors utilized two compounds that increase intracellular Ca^2+ concentrations. 3′,4′-dichlorobenzamil hydrochloride (DCB) inhibits the Na^+/Ca^2+ exchanger, Na^+ transport, and sarcoplasmic reticulum Ca^2+ release channels. Thapsigargin inhibits the endoplasmic reticulum Ca^+ ATPase, preventing storage of Ca^2+ in the endoplasmic reticulurn, causing an accumulation in the cytoplasm. Cells were treated with 2.5-10 μM of DCB or thapsigargin±TGF-β for 24 hours.

[5] = system: TGF-β-induced fibronectin; test: High content imaging (Cellomics) screen for inhibitors of fibronectin induction by TGF-beta in WPMY-1 cells; type: cell-based, human
Protocol: as §3, with “The fold change in fibronectin expression per acquired image (nuclei) is shown (Mean+/−SD).” left out
FIGS. 4A-4H: Dose response for identified hits. As shown in the four panels of FIG. 4A, fibronectin fluorescence was measured from images acquired following a Cellomics scan using WPMY-1 cells with concentrations of hits over a range of 0-100 uM. […] Results were expressed as percent inhibition caused by cells treated with TGF-β alone and without testing compound, which was considered as 100%. […]
FIGS. 14-15 show Table I—Prestwick Library and Table II—NIH Library chemicals respectively. […] A “hit” was defined as a compound causing at least 50% reduction of “Mean_RingTotal Intensity”, which is the fluorescence intensity within the defined ring (see FIG. 2) surrounding nucleus of each cell, summed for 300 cells per image and 15 fields per image. The solvent, 0.1% Dimethyl Sulfoxide (DMSO), with and without TGF-beta served as an internal control on each plate to normalize day-to-day and plate-to-plate variation with DMSO alone as low fluorescence (0%) and TGF-β treated as maximal fluorescence (100%). […]

WPMY-1 cells = test: Viability / metabolic activity assay on WPMY-1 cells; conditions: WPMY-1, compound at its IC50, up to 48 hours, 1% FBS DMEM, vs DMSO control
Protocol: Metabolically viable cells (indicated by bar; left y-axis) are indicated by fluorescent intensity (560/590 nm).
Cardiac glycosides have been shown previously to inhibit cell growth in a variety of cell types, in order to determine whether cardiac glycosides inhibited TGE-β-induced fibronectin expression by affecting metabolic activity, viability assays were performed on WPMY-1 cells over 48 hours in 1% FBS DMEM.

## COC(=O)c1ccc2c(c1)NC(=O)/C2=C(\Nc1ccc(N(C)C(=O)CN2CCN(C)CC2)cc1)c1ccccc1 [nintedanib]
[1]; MRC-5, 10 ng/mL FGF, nintedanib 200 nM, 24 hours
  FGF signaling (TAZ upregulation): blocks FGF signaling
[1]; MRC-5, 10 ng/mL TGF-β, nintedanib 200 nM, 24 hours
  induction of activated fibroblast markers by TGF-β: does not bock induction by TGF-β

## Cc1cc(/C=C/c2ccc3cc(N(C)C)ccc3[n+]2C)c(C)n1-c1ccccc1 [pyrvinium]
[1]; MRC-5, 10 ng/mL TGF-β and 20 ng/ml FGF, 24 hours
  activated fibroblast phenotype induced by TGF-β and FGF (fibronectin, YAP, TAZ, smooth muscle actin): able to prevent the activated fibroblast phenotype
[1]; MRC-5, 10 ng/mL TGF-β and 20 ng/ml FGF, 24 hours, nintedanib 200 nM
  activated fibroblast phenotype upon TGF-β and FGF, compared with nintedanib: able to block the activated fibroblast phenotype better than nintedanib
[1]; MRC-5, 10 ng/mL TGF-β, 20 ng/mL FGF, 20 ng/mL IL-8, digoxin 250 nM, pyrvinium 500 nM vs pirfenidone 500 μm, nintedanib 250 nM
  fibroblast activation from a combination of growth factors (TGF, FGF, IL8): able to block fibroblast activation from a combination of growth factors better than pirfenidone or nintedanib
[2]
  fibronectin staining intensity per cell (Cellomics arrayscan): the levels of fibronectin are reduced
[3]
  reversal of activated fibroblast phenotype (fibronectin, TAZ, smooth muscle actin): revert fibroblasts to the quiescent state

## CC(=O)OCOC(=O)CN(CC(=O)OCOC(C)=O)c1ccccc1OCCOc1ccccc1N(CC(=O)OCOC(C)=O)CC(=O)OCOC(C)=O [BAPTA-AM, Glycine, N,N′-[1,2-ethanediylbis(oxy-2,1-phenylene)]bis[N-[2-[(acetyloxy)methoxy]-2-oxoethyl]]-, bis[(acetyloxy)methyl] ester]
[4]
  TGF-β-induced fibronectin expression, intracellular Ca2+ modulators (western blot): no effect on TGF-β-induced fibronectin expression

## C[C@@H]1O[C@@H](O[C@@H]2C=C3CC[C@@H]4[C@H](CC[C@]5(C)[C@@H](c6ccc(=O)oc6)CC[C@]45O)[C@@]3(C)CC2)[C@H](O)[C@H](O)[C@H]1O [Proscillaridin A]
[5]; WPMY-1, 0-100 uM, TGF-β 24 hour
  IC50 / potency for inhibition of TGF-β-induced fibronectin (dose response): lowest IC50
[5]; WPMY-1, TGF-β plus PsA at 5 micromolar
  inhibition of fibronectin induction, Cellomics based image analysis: potent inhibitor of fibronectin induction
[4]; WPMY-1, TGF-β, dose range of PsA
  inhibition of fibronectin induction, western blot: inhibits induction of fibronectin even a low nanomolar concentrations
WPMY-1 cells
  cell viability / metabolic activity: toxic to cells
WPMY-1 cells; listed as proscillaridin A
  cell viability / metabolic activity: decreased metabolic activity

## Cl.NC(=NCc1ccc(Cl)c(Cl)c1)NC(=O)c1nc(Cl)c(N)nc1N [DCB, 3′,4′-dichlorobenzamil hydrochloride]
[4]
  TGF-β-induced fibronectin expression, intracellular Ca2+ modulators (western blot): able to prevent TGF-β-induced fibronectin expression in a dose-dependent manner

## verteporfin
[1]; MRC-5, 10 ng/mL TGF-β, 24 hours
  TAZ levels: not reduced
[1]; MRC-5, 10 ng/mL TGF-β, serum-free, 24 hours, dose escalation
  induction of fibronectin, YAP, TAZ, smooth muscle actin by TGF-β: represses TGF-β induced fibronectin and smooth muscle actin expression

## C[C@@H]1O[C@@H](O[C@H]2C[C@@H](O)[C@]3(CO)[C@H]4[C@H](O)C[C@]5(C)[C@@H](C6=CC(=O)OC6)CC[C@]5(O)[C@@H]4CC[C@]3(O)C2)[C@H](O)[C@H](O)[C@H]1O [ouabain]
WPMY-1 cells
  cell viability / metabolic activity: no effect on cell viability

## C/C=C(/C)C(=O)O[C@H]1C(C)=C2[C@H]([C@@H]1OC(=O)CCCCCCC)[C@@](C)(OC(C)=O)C[C@H](OC(=O)CCC)[C@@]1(O)[C@H]2OC(=O)[C@@]1(C)O [thapsigargin]
[4]
  TGF-β-induced fibronectin expression, intracellular Ca2+ modulators (western blot): able to prevent TGF-β-induced fibronectin expression in a dose-dependent manner

## CC(=O)O[C@H]1C[C@H](O[C@H]2[C@@H](O)C[C@H](O[C@H]3[C@@H](O)C[C@H](O[C@H]4CC[C@@]5(C)[C@H](CC[C@@H]6[C@@H]5C[C@@H](O)[C@]5(C)[C@@H](C7=CC(=O)OC7)CC[C@]65O)C4)O[C@@H]3C)O[C@@H]2C)O[C@H](C)[C@H]1O[C@@H]1O[C@H](CO)[C@@H](O)[C@H](O)[C@H]1O [lanatoside C]
WPMY-1 cells
  cell viability / metabolic activity: no effect on cell viability
